Test results from patent US10576102B2, “KOC1-derived peptide and vaccine including same” (ONCOTHERAPY SCIENCE, INC., priority 2014, dated 2020).
Entries after “also recorded” stand apart in the source; their conditions may differ.

Tests used:
Assay type in all cases: cell-based, human
[1] = test system: peptide-pulsed C1R-A33; assay: In vitro CTL induction, IFN-gamma ELISPOT assay (HLA-A*3303); settings: CTLs induced with peptide-pulsed DCs from HLA-A*3303-positive volunteers, day 21, vs peptide-pulsed C1R-A33, compared with unpulsed control
Experimental: C1R (C1R-A33) that stably expresses HLA-A*3303 was used as a stimulator cell. A cDNA encoding the open-reading frame of HLA-A*3303 was amplified by PCR and cloned into an expression vector. C1R cells were transfected with the expression vector, and then selected using G418 (Invitrogen) for two weeks. The G418-selected cells were seeded into wells containing G418-added culture medium in a 96-well plate, and further cultured for 30 days. The exogenous HLA-A*3303 expression in C1R cells was verified by flow cytometric analysis.
(§1) Monocyte-derived dendritic cells (DCs) were used as the antigen-presenting cell to induce a cytotoxic T lymphocyte (CTL) response against peptides presented on human leukocyte antigens (HLAs). As described in the other sections, DCs were generated in vitro (Nakahara S et al., Cancer Res 2003, 63(14): 4112-8). Specifically, peripheral-blood mononuclear cells isolated from healthy volunteers (HLA-A*3303-positive) with the Ficoll-Paque plus solution (Pharmacia) were separated by attaching to plastic tissue culture dishes (Becton Dickinson) and concentrated as a monocyte fraction. The monocyte-concentrated population was cultured in the presence of 1000 IU/ml granulocyte macrophage colony-stimulating factor (R&D System) and 1000 IU/ml interleukin(IL)-4 (R&D System) in an AIM-V medium (Invitrogen) containing 2% heat-inactivated autologous serum (AS). After seven days of culturing, the cytokine-induced DCs were pulsed with 20 micro-g/ml each of the synthesized peptides in an AIM-V medium at 37 degrees C. for three hours in the presence of 3 micro-g/ml beta 2-microglobulin. The generated cells appeared to express on their cell surface DC-associated molecules such as CD80, CD83, CD86 and HLA class II (data not shown). Next, these peptide-pulsed DCs were inactivated by X-ray irradiation (20 Gy), and mixed in a 1:20 ratio with autologous CD8^+ T cells obtained by positive selection using the CD8 Positive Isolation Kit (Dynal). These culture products were seeded in a 48-well plate (Corning). Each well was made to contain 1.5×10^4 peptide-pulsed DCs, 3×10^5 CD8^+ T cells and 10 ng/ml IL-7 (R&D System) in 0.5 ml of the AIM-V/2% AS medium. Three days later, these culture products were added with a final concentration of 20 IU/ml IL-2 (CHIRON). On day 7 and day 14, T cells were further stimulated with peptide-pulsed autologous DCs. The DCs were prepared every time by the same method as above. On day 21, after the third peptide stimulation, CTLs were examined against the peptide-pulsed C1R-A33 cell by a human interferon (IFN)-gamma enzyme-linked immunospot (ELISPOT) assay (Tanaka H et al., Br J Cancer 2001, 84(1): 94-9; Umano Y et. al., Br J Cancer 2001, 84(8): 1052-7; Uchida N et al., Clin Cancer Res 2004, 10(24): 8577-86; Suda T et al., Cancer Sci 2006, 97(5): 411-9; Watanabe T et al., Cancer Sci 2005, 96(8): 498-506).
(§2) Specifically, peptide-pulsed C1R-A33 (1×10^4 cells/well) was prepared as the stimulator cell. The induced CTLs, i.e., CTL lines and CTL clones, were used as the responder cell. The IFN-gamma ELISPOT assay and IFN-gamma ELISA were performed according to the manufacturer's manual.

[2] = test system: peptide-pulsed C1R-A01; assay: In vitro CTL induction, IFN-gamma ELISPOT assay (HLA-A*0101); settings: CTLs induced with peptide-pulsed DCs from HLA-A*0101-positive volunteers, day 21, vs peptide-pulsed C1R-A01, compared with unpulsed control
Experimental: C1R (C1R-A01) that stably expresses HLA-A*0101 was used as a stimulator cell. A cDNA encoding the open-reading frame of HLA-A*0101 was amplified by PCR and cloned into an expression vector. C1R cells were transfected with the expression vector, and then selected using G418 (Invitrogen) for two weeks. The G418-selected cells were seeded into wells containing G418-added culture medium in a 96-well plate, and further cultured for 30 days. The exogenous HLA-A*0101 expression in C1R cells was verified by flow cytometric analysis.
as §1, with “(HLA-A*0101-positive)” for “(HLA-A*3303-positive)”, “2-microglobulin.” for “2-microglobulin. The generated cells appeared to express on their cell surface DC-associated molecules such as CD80, CD83, CD86 and HLA class II (data not shown).”, “CTL activities” for “CTLs”, “C1R-A01 cells” for “C1R-A33 cell by a human interferon (IFN)-gamma enzyme-linked immunospot (ELISPOT) assay”, “et” for “et.”
Specifically, peptide-pulsed C1R-A01 (1×10^4 cells/well) was prepared as the stimulator cell. The induced CTLs, i.e., CTL lines and CTL clones, were used as the responder cell. The IFN-gamma ELISPOT assay and IFN-gamma ELISA were performed according to the manufacturer's manual.

[3] = test system: peptide-pulsed C1R-A33; assay: IFN-gamma ELISA of CTL lines and CTL clones (HLA-A*3303); settings: for IFN-gamma production of CTL clones, ELISA: CTL clones by limiting dilution, peptide-pulsed C1R-A33; for IFN-gamma production of CTL lines, ELISA: target cells pulsed with the peptide vs not pulsed, C1R-A33
Experimental: CTLs were propagated in culture using methods similar to those disclosed by Riddell et al. (Walter E A et al., N Engl J Med 1995, 333(16): 1038-44; Riddell S R et al., Nat Med 1996, 2(2): 216-23). The CTLs were co-cultured in a total of 25 ml AIM-V medium containing 5% AS (AIM-V/5% AS) and 40 ng/ml anti-CD3 antibody with two types of Mitomycin C-treated human B lymphoblastoid cell lines at 5×10^6 cells/flask. One day after beginning of the culturing, 120 IU/ml IL-2 was added to the culture. On days 5, 8 and 11, a fresh AIM-V/5% AS medium containing 30 IU/ml IL-2 was added to the culture (Tanaka H et al., Br J Cancer 2001, 84(1): 94-9; Umano Y et al., Br J Cancer 2001, 84(8): 1052-7; Uchida N et al., Clin Cancer Res 2004, 10(24): 8577-86; Suda T et al., Cancer Sci 2006, 97(5): 411-9; Watanabe T et al., Cancer Sci 2005, 96(8): 498-506).
Dilution of CTLs was carried out to make 0.3, 1 and 3 cells/well in 96 round-bottomed microtiter plates (Nalge Nunc International). The CTLs were co-cultured with two types of Mitomycin C-treated human B lymphoblastoid cell lines at 1×10^4 cells/well in a total of 150 micro-1/well AIM-V/5% AS medium with 30 ng/ml anti-CD3 antibody and 125 IU/ml IL-2. Ten days later, IL-2 was added to the medium at 50 micro-1/well to reach a final concentration of 125 IU/ml. On day 14, the CTL activity was tested, and the CTL clones were propagated using the same method as described above (Uchida N et al., Clin Cancer Res 2004, 10(24): 8577-86; Suda T et al., Cancer Sci 2006, 97(5): 411-9; Watanabe T et al., Cancer Sci 2005, 96(8): 498-506).
as §2

| Sequence | peptide-specific CTL activity (IFN-gamma production), ELISPOT [1] | peptide-specific CTL activity (IFN-gamma production), ELISPOT [2] | further results |
| --- | --- | --- | --- |
| ELTLYNPER (a peptide derived from KOC1) [SEQ ID NO: 63] | potent IFN-gamma production |  |  |
| ETETVHLFI (a peptide derived from KOC1) [SEQ ID NO: 90] |  | potent IFN-gamma production |  |
| FYACQVAQR (a peptide derived from KOC1) [SEQ ID NO: 61] | potent IFN-gamma production |  | IFN-gamma production of CTL clones, ELISA ([3]; listed as KOC1-A33-9-543): Potent IFN-gamma production; IFN-gamma production of CTL lines, ELISA [3]: potent IFN-gamma production |
| FYACQVAQRK (a peptide derived from KOC1) [SEQ ID NO: 79] | potent IFN-gamma production |  |  |
| ISPLQELTLY (a peptide derived from KOC1) [SEQ ID NO: 46] |  | potent IFN-gamma production |  |
| LAHNNFVGR (a peptide derived from KOC1) [SEQ ID NO: 62] | potent IFN-gamma production |  | IFN-gamma production of CTL clones, ELISA ([3]; listed as KOC1-A33-9-282): Potent IFN-gamma production; IFN-gamma production of CTL lines, ELISA [3]: potent IFN-gamma production |
| LVKTGYAFV (a peptide derived from KOC1) [SEQ ID NO: 74] | potent IFN-gamma production |  |  |
| NNFVGRLIGK (a peptide derived from KOC1) [SEQ ID NO: 85] | potent IFN-gamma production |  |  |
| QGQHIKQLSR (a peptide derived from KOC1) [SEQ ID NO: 80] | potent IFN-gamma production |  |  |
| QSETETVHL (a peptide derived from KOC1) [SEQ ID NO: 92] |  | potent IFN-gamma production |  |
| QSETETVHLF (a peptide derived from KOC1) [SEQ ID NO: 95] |  | potent IFN-gamma production |  |
| SSAEVVVPR (a peptide derived from KOC1) [SEQ ID NO: 4] |  |  | peptide-specific CTL activity (IFN-gamma production), ELISPOT ([1]; listed as KOC1-A33-9-517): no specific IFN-gamma production; also recorded: specific IFN-gamma production was not observed |
| VVKITGHFY (a peptide derived from KOC1) [SEQ ID NO: 13] |  |  | peptide-specific CTL activity (IFN-gamma production), ELISPOT ([2]; listed as KOC1-A01-9-536): no specific IFN-gamma production; also recorded: specific IFN-gamma production was not observed |
| VVVKITGHFY (a peptide derived from KOC1) [SEQ ID NO: 41] |  | potent IFN-gamma production |  |
